The text below walks through data of patent US5840740A, “Aminosterol compounds and a method of treating infection using the aminosterol compounds” (priority 1995, dated 1998).

Where a name gives a salt, the structure may show the parent alone.

Experiment [1] has as its system chick embryo vitelline capillaries. Description: Chick embryo vitelline capillary regression assay. In kind it is in vivo. On the set-up: key to vascular reactivity (capillary regression): +: Vascular reactivity; 0: No vascular reactivity; +/-: Equivocal reactivity. The conditions noted are these: for vascular reactivity (capillary regression): 60 min; for Chick embryo diss. assay, Minimum Effective Concentration: Table II; for effect on chick embryo vessels / blood: in words. On the procedure: Using the chick embryo vitelline capillaries assay, compounds were tested for their ability to induce capillary regression. Each compound was applied in 0.1 ml of 15% Ficol 400 and PBS onto the embryo, and vascular regression was assessed after 60 minutes.
The 3-day chick embryo consists of an embryonic disc from which numerous vessels emerge and return, forming a "figure 8"-shaped structure--the embryo in the center with vascular loops extending outward over both poles. […] Following a lag period of around 15 minutes, the constriction of continuity between capillary and secondary vessels, generally on the "avenous" side, was observed. Continued pulsatile blood flow progressed, resulting in a "swelling" of the blind tube, followed by a pinching off of the remaining connection and formation of an enclosed vascular sac resembling a "blood island." This process progressed until only the largest vessels remained intact.

Experiment [2] concerns Xenopus tadpole. The conditions noted are these: stage 59-60, 10 μg/ml; in words.

Consider `CC(COS(=O)(=O)O)C(=O)CC[C@@H](C)[C@H]1CC[C@H]2[C@@H]3[C@H](O)C[C@H]4C[C@@H](NCCCNCCCCN)CC[C@]4(C)[C@H]3CC[C@]12C` (single isomer, unassigned) [Compound 1360], for which the “vascular reactivity (capillary regression)” value (from here on “vascular reactivity”) in experiment [1] (1 μg applied) was found to be 0. In experiment [1], the “Chick embryo diss. assay, Minimum Effective Concentration” value (from here on “Chick embryo diss. assay”) was above 10 µg and the “effect on chick embryo vessels / blood” value is reported as “Within 20 minutes, the blood circulating through the embryonic vessels exhibited a brighter red color”. Further, the “pharmacological response in tadpole” value in experiment [2] is “Swelling and lysis of certain erythrocytes occurred, resulting in accumulation of nuclei within certain small vessels of the tail. Subsequent tissue breakdown occurred in areas of tail surrounding these nuclear plugs”.

Consider `CC(C)CCC[C@@H](C)[C@H]1CC[C@H]2[C@@H]3CC[C@H]4C[C@@H](NCCCNCCCCN)CC[C@]4(C)[C@H]3CC[C@]12C` [Compound 303], for which, in experiment [1] (1 μg applied), the “vascular reactivity” value is listed as 0. The “Chick embryo diss. assay” value in experiment [1] is above 10 µg.

As to `C[C@H](CCC(=O)O)[C@H]1CC[C@H]2[C@@H]3CC[C@H]4C[C@H](NCCCNCCCCN)CC[C@]4(C)[C@H]3CC[C@]12C` [Compound 318], in experiment [1] (1 μg applied), the “vascular reactivity” value worked out at 0. Also, the “Chick embryo diss. assay” value in experiment [1] is above 10 µg.

For `CC(C)CCC[C@@H](C)[C@H]1CC[C@H]2[C@@H]3CC[C@H]4C[C@H](NCCCNCCCCNCCCN)CC[C@]4(C)[C@H]3CC[C@]12C` [Compound 354], in experiment [1], the “Chick embryo diss. assay” value was above 10 µg.

In the case of `CC(C)CCC[C@@H](C)[C@H]1CC[C@H]2[C@@H]3[C@H](O)C[C@H]4C[C@@H](NCCCNCCCCN)CC[C@]4(C)[C@H]3CC[C@]12C` [Compound 371], the “vascular reactivity” value in experiment [1] (0.001 μg applied) is listed as 0; in experiment [1] (0.01 μg applied), 0; in experiment [1] (0.1 μg applied), 0; in experiment [1] (1 μg applied) it was “+/-”; in experiment [1] (10 μg applied) it was “+”. Also, the “Chick embryo diss. assay” value in experiment [1] lay within 1 to 10 µg. For the same molecule, in experiment [2], the “pharmacological response in tadpole” value was “effects like those produced by compound 1436”.

Turning to `C[C@H](CCC(=O)O)[C@H]1CC[C@H]2[C@@H]3[C@H](O)C[C@H]4C[C@@H](NCCCNCCCCN)CC[C@]4(C)[C@H]3CC[C@]12C` [Compound 381], in experiment [1] (1 μg applied), the “vascular reactivity” value amounted to 0. In addition, the “Chick embryo diss. assay” value in experiment [1] was above 10 µg.

Regarding `C[C@H](CCC(=O)O)[C@H]1CC[C@H]2[C@@H]3[C@H](O)C[C@H]4C[C@H](NCCCNCCCCN)CC[C@]4(C)[C@H]3CC[C@]12C` [Compound 382], the “vascular reactivity” value in experiment [1] (0.001 μg applied) is listed as 0; in experiment [1] (0.01 μg applied), 0; in experiment [1] (0.1 μg applied) it was 0; in experiment [1] (1 μg applied), “+”; in experiment [1] (10 μg applied) it was “+”. In experiment [1], the “Chick embryo diss. assay” value came out at 0.01 µg.

`CC(C)CCC[C@@H](C)[C@H]1CC[C@H]2[C@@H]3CC[C@H]4C[C@H](NCCCN5CCCCN=C5N)CC[C@]4(C)[C@H]3CC[C@]12C` [Compound 393]: the “Chick embryo diss. assay” value in experiment [1] is above 10 µg.

As for `COC(=O)CC[C@@H](C)[C@H]1CC[C@H]2[C@@H]3[C@H](O)C[C@H]4C[C@H](NCCCNCCCCN)CC[C@]4(C)[C@H]3CC[C@]12C` [Compound 394], the “Chick embryo diss. assay” value in experiment [1] was above 10 µg.

Consider `COC(=O)CC[C@@H](C)[C@H]1CC[C@H]2[C@@H]3[C@H](O)C[C@H]4C[C@H](NCCCNCCCCNCCCN)CC[C@]4(C)[C@H]3CC[C@]12C` [Compound 395], for which the “Chick embryo diss. assay” value in experiment [1] was above 10 µg.

With `COC(=O)CC[C@@H](C)[C@H]1CC[C@H]2[C@@H]3[C@H](O)C[C@H]4C[C@@H](NCCCNCCCCNCCCN)CC[C@]4(C)[C@H]3CC[C@]12C` [Compound 396], the “vascular reactivity” value in experiment [1] (0.001 μg applied) is listed as 0; in experiment [1] (0.01 μg applied), 0; in experiment [1] (0.1 μg applied), 0; in experiment [1] (1 μg applied) it was “+”. Further, in experiment [1], the “Chick embryo diss. assay” value is 10 µg.

In the case of `C[C@H](CCC(=O)O)[C@H]1CC[C@H]2[C@@H]3[C@H](O)C[C@H]4C[C@@H](NCCCNCCCCNCCCN)CC[C@]4(C)[C@H]3CC[C@]12C` [Compound 397], the “Chick embryo diss. assay” value in experiment [1] stood at 1 µg.

Turning to `C[C@H](CCCOS(=O)(=O)O)[C@H]1CC[C@H]2[C@@H]3CC[C@H]4C[C@@H](NCCCNCCCCN)CC[C@]4(C)[C@H]3CC[C@]12C` [Compound 399, 3β-N-1-{N[3-(4-Aminobutyl)]-1,3-diaminopropane}-24-hydroxy-5α-cholane 24-potassium sulfate], the “Chick embryo diss. assay” value in experiment [1] was above 10 µg.

Turning to `COC(=O)CC[C@@H](C)[C@H]1CC[C@H]2[C@@H]3[C@H](O)C[C@@H]4C[C@@H](NCCCNCCCCNCCCN)CC[C@]4(C)[C@H]3CC[C@]12C` [Compound 411], the “vascular reactivity” value in experiment [1] (1 μg applied) is “+/-”. For the same molecule, in experiment [1], the “Chick embryo diss. assay” value is above 1 µg.

Regarding `C[C@H](CCC(=O)O)[C@H]1CC[C@H]2[C@@H]3[C@H](O)C[C@@H]4C[C@@H](NCCN)CC[C@]4(C)[C@H]3CC[C@]12C` [Compound 415], the “vascular reactivity” value in experiment [1] (0.001 μg applied) is on record as 0; in experiment [1] (0.01 μg applied), “+”; in experiment [1] (0.1 μg applied), “+”; in experiment [1] (1 μg applied), “+”. Moreover, in experiment [1], the “Chick embryo diss. assay” value was above 1 µg. Besides, the “effect on chick embryo vessels / blood” value in experiment [1] is reported as “especially active”.

Consider `C[C@H](CCC(=O)O)[C@H]1CC[C@H]2[C@@H]3CC[C@@H]4C[C@H](NCCN)CC[C@]4(C)[C@H]3C[C@H](O)[C@]12C` [Compound 417], for which the “Chick embryo diss. assay” value in experiment [1] is above 1 µg.

Turning to `COC(=O)CC[C@@H](C)[C@H]1CC[C@H]2[C@@H]3CC[C@@H]4C[C@H](NCCCNCCCCNCCCN)CC[C@]4(C)[C@H]3C[C@H](O)[C@]12C` [Compound 448], the “Chick embryo diss. assay” value in experiment [1] is 1 µg.

On to `C[C@H](CCC(=O)O)[C@H]1CC[C@H]2[C@@H]3CC[C@@H]4C[C@H](NCCCNCCCCNCCCN)CC[C@]4(C)[C@H]3C[C@H](O)[C@]12C` [Compound 449], for which the “Chick embryo diss. assay” value in experiment [1] was above 1 µg.

Regarding `COC(=O)CC[C@@H](C)[C@H]1CC[C@H]2[C@@H]3C[C@@H](O)[C@H]4C[C@H](NCCCNCCCCNCCCN)CC[C@]4(C)[C@H]3CC[C@]12C` [Compound 465], in experiment [2], the “pharmacological response in tadpole” value is given as “pharmacologic activity similar to that seen for FX 3”.

Regarding `CC(C)CCC[C@@H](C)[C@H]1CC[C@H]2[C@@H]3[C@H](O)C[C@H]4C[C@H](N)CC[C@]4(C)[C@H]3CC[C@]12C` [Compound 1363], the “pharmacological response in tadpole” value in experiment [2] is on record as “pharmacologic activity similar to Fraction 1”.

As to `CC(C)CCC[C@@H](C)[C@H]1CC[C@H]2[C@@H]3[C@H](O)C[C@H]4C[C@@H](N)CC[C@]4(C)[C@H]3CC[C@]12C` [Compound 1364], the “vascular reactivity” value is 0 in experiment [1] (0.001 μg applied); 0 in experiment [1] (0.01 μg applied); 0 in experiment [1] (0.1 μg applied); “+” in experiment [1] (1 μg applied); “+” in experiment [1] (10 μg applied).
